# According to patent US5817755A, “Synthetic peptide analogs of cross-linked N-telopeptides of type I collagen” (Washington Research Foundation, priority 1997, dated 1998):
# Non-standard residues stand in square brackets, D forms with d. Residues, ends and D or L forms follow the SMILES beside them. Cya = N[C@@H](CS(=O)(=O)O)C(=O)O; Aad = N[C@@H](CCCC(=O)O)C(=O)O; pGlu = O=C1CC[C@@H](C(=O)O)N1
# System: mAb 1H11
# Experiment: OSTEOMARK competitive immunoassay testing apparent affinity of synthetic peptides for mAb 1H11
# Assay type: binding
# Settings: for binding to mAb 1H11 (in words): synthetic peptide, antibody inhibition assay; for Results: peptide binding to mAb 1H11, 1 μg synthetic peptide = X nmole BCE: nanomoles Bone Collagen Equivalents equivalent to 1 μg peptide, back fit into OSTEOMARK standard curve, values between 0.5 and 1 OD averaged
# Text: Generally, a milligram per mL solution of the peptide was made in PBS. The absorbence at A280 was read and the concentration confirmed. Dilutions of the peptide were then made in a buffer such as OSTEOMARK (TM) calibrator diluent (OSTEOMARK Assay, Ostex International, Seattle, Wash.). Working strength concentrations were between 10 and 0.01 micrograms per milliliter.
# To test the apparent affinity of the synthetic peptides for mAb 1H11, the OSTEOMARK assay was run using OSTEOMARK kits and components, including monoclonal antibody 1H11. A standard curve was run using OSTEOMARK calibrators. Peptide samples were generally tested at 10, 3, 1, and down to 0.01 μG per mL. The standard OSTEOMARK curve was generated using a four parameter logistic curve fit program (MedData Inc., N.Y., N.Y.). Peptide values were back fit into the standard curve and values were reported in picomoles Bone Collagen Equivalents (BCE)/mL (which equals nanomolar BCE, or nM BCE).
# Values in the Table are reported as the number of nanomoles of BCE equivalent to a microgram of a given peptide. Antibody binding values below 500 nMole BCE were considered to be commercially insignificant.
SMILES,"Results: peptide binding to mAb 1H11, 1 μg synthetic peptide = X nmole BCE [nmole BCE]",also measured
CC(C)[C@H](NC(=O)CNC(=O)[C@H](CCC(=O)O)NC(=O)CNC(=O)[C@H](CC(=O)O)NC(=O)[C@H](Cc1ccc(O)cc1)NC(=O)[C@@H](N)CCC(=O)O)C(=O)NCC(=O)O [EYDGEGVG] (H-EYDGEGVG-OH),–,binding to mAb 1H11 (in words): not recognized
"CC(C)[C@H](NC(=O)CNC(=O)[C@H](C)NC(=O)CNC(=O)[C@H](CC(=O)O)NC(=O)[C@H](Cc1ccc(O)cc1)NC(=O)[C@@H]1CCC(=O)N1)C(=O)NCC(=O)O [SEQ ID NO:1, J Y D G A G V G] ([pGlu]YDGAGVG-OH)",483,–
"CC(C)[C@H](NC(=O)CNC(=O)[C@H](CC(=O)O)NC(=O)CNC(=O)[C@H](CC(=O)O)NC(=O)[C@H](Cc1ccc(O)cc1)NC(=O)[C@@H]1CCC(=O)N1)C(=O)NCC(=O)O [SEQ ID NO:3, J Y D G D G V G] ([pGlu]YDGDGVG-OH)",–,"Results: peptide binding to mAb 1H11, 1 μg synthetic peptide = X nmole BCE (listed as 3): 1840 nmole BCE"
"CC(C)[C@H](NC(=O)CNC(=O)[C@H](CCC(=O)O)NC(=O)CNC(=O)[C@H](CC(=O)O)NC(=O)[C@H](Cc1ccc(O)cc1)NC(=O)[C@@H]1CCC(=O)N1)C(=O)NCC(=O)O [SEQ ID NO:4, J Y D G E G V G] ([pGlu]YDGEGVG-OH)",2400,binding to mAb 1H11 (in words): Improved binding; binding to mAb 1H11 (in words) (listed as Gln-Tyr-Asp-Gly-Glu-Gly-Val-Gly): comparable to that of the cross-linked NTx antigen
"CC(C)[C@H](NC(=O)CNC(=O)[C@H](Cc1ccccc1)NC(=O)CNC(=O)[C@H](CC(=O)O)NC(=O)[C@H](Cc1ccc(O)cc1)NC(=O)[C@@H]1CCC(=O)N1)C(=O)NCC(=O)O [SEQ ID NO:5, J Y D G F G V G] ([pGlu]YDGFGVG-OH)",365,–
"CC(C)[C@H](NC(=O)CNC(=O)CNC(=O)CNC(=O)[C@H](CC(=O)O)NC(=O)[C@H](Cc1ccc(O)cc1)NC(=O)[C@@H]1CCC(=O)N1)C(=O)NCC(=O)O [SEQ ID NO:6, J Y D G G G V G] ([pGlu]YDGGGVG-OH)",114,–
"CC(C)[C@H](NC(=O)CNC(=O)[C@H](Cc1c[nH]cn1)NC(=O)CNC(=O)[C@H](CC(=O)O)NC(=O)[C@H](Cc1ccc(O)cc1)NC(=O)[C@@H]1CCC(=O)N1)C(=O)NCC(=O)O [SEQ ID NO:7, J Y D G H G V G] ([pGlu]YDGHGVG-OH)",650,binding to mAb 1H11 (in words): more limited degree of 1H11 binding
"CC[C@H](C)[C@H](NC(=O)CNC(=O)[C@H](CC(=O)O)NC(=O)[C@H](Cc1ccc(O)cc1)NC(=O)[C@@H]1CCC(=O)N1)C(=O)NCC(=O)N[C@H](C(=O)NCC(=O)O)C(C)C [SEQ ID NO:8, J Y D G I G V G] ([pGlu]YDGIGVG-OH)",250,–
"CC(C)C[C@H](NC(=O)CNC(=O)[C@H](CC(=O)O)NC(=O)[C@H](Cc1ccc(O)cc1)NC(=O)[C@@H]1CCC(=O)N1)C(=O)NCC(=O)N[C@H](C(=O)NCC(=O)O)C(C)C [SEQ ID NO:10, J Y D G L G V G] ([pGlu]YDGLGVG-OH)",230,–
"CSCC[C@H](NC(=O)CNC(=O)[C@H](CC(=O)O)NC(=O)[C@H](Cc1ccc(O)cc1)NC(=O)[C@@H]1CCC(=O)N1)C(=O)NCC(=O)N[C@H](C(=O)NCC(=O)O)C(C)C [SEQ ID NO:11, J Y D G M G V G] ([pGlu]YDGMGVG-OH)",183,–
"CC(C)[C@H](NC(=O)CNC(=O)[C@H](CC(N)=O)NC(=O)CNC(=O)[C@H](CC(=O)O)NC(=O)[C@H](Cc1ccc(O)cc1)NC(=O)[C@@H]1CCC(=O)N1)C(=O)NCC(=O)O [SEQ ID NO:12, J Y D G N G V G] ([pGlu]YDGNGVG-OH)",135,–
"CC(C)[C@H](NC(=O)CNC(=O)[C@@H]1CCCN1C(=O)CNC(=O)[C@H](CC(=O)O)NC(=O)[C@H](Cc1ccc(O)cc1)NC(=O)[C@@H]1CCC(=O)N1)C(=O)NCC(=O)O [SEQ ID NO:13, J Y D G P G V G] ([pGlu]YDGPGVG-OH)",2056,–
"CC(C)[C@H](NC(=O)CNC(=O)[C@H](CCC(N)=O)NC(=O)CNC(=O)[C@H](CC(=O)O)NC(=O)[C@H](Cc1ccc(O)cc1)NC(=O)[C@@H]1CCC(=O)N1)C(=O)NCC(=O)O [SEQ ID NO:14, J Y D G Q G V G] ([pGlu]YDGQGVG-OH)",148,–
"CC(C)[C@H](NC(=O)CNC(=O)[C@H](CCCNC(=N)N)NC(=O)CNC(=O)[C@H](CC(=O)O)NC(=O)[C@H](Cc1ccc(O)cc1)NC(=O)[C@@H]1CCC(=O)N1)C(=O)NCC(=O)O [SEQ ID NO:15, J Y D G R G V G] ([pGlu]YDGRGVG-OH)",23,–
"CC(C)[C@H](NC(=O)CNC(=O)[C@H](CO)NC(=O)CNC(=O)[C@H](CC(=O)O)NC(=O)[C@H](Cc1ccc(O)cc1)NC(=O)[C@@H]1CCC(=O)N1)C(=O)NCC(=O)O [SEQ ID NO:16, J Y D G S G V G] ([pGlu]YDGSGVG-OH)",30,–
"CC(C)[C@H](NC(=O)CNC(=O)[C@@H](NC(=O)CNC(=O)[C@H](CC(=O)O)NC(=O)[C@H](Cc1ccc(O)cc1)NC(=O)[C@@H]1CCC(=O)N1)[C@@H](C)O)C(=O)NCC(=O)O [SEQ ID NO:17, J Y D G T G V G] ([pGlu]YDGTGVG-OH)",252,–
"CC(C)[C@H](NC(=O)CNC(=O)[C@H](CC(=O)O)NC(=O)[C@H](Cc1ccc(O)cc1)NC(=O)[C@@H]1CCC(=O)N1)C(=O)NCC(=O)N[C@H](C(=O)NCC(=O)O)C(C)C [SEQ ID NO:18, J Y D G V G V G] ([pGlu]YDGVGVG-OH)",400,–
"CC(C)[C@H](NC(=O)CNC(=O)[C@H](Cc1c[nH]c2ccccc12)NC(=O)CNC(=O)[C@H](CC(=O)O)NC(=O)[C@H](Cc1ccc(O)cc1)NC(=O)[C@@H]1CCC(=O)N1)C(=O)NCC(=O)O [SEQ ID NO:19, J Y D G W G V G] ([pGlu]YDGWGVG-OH)",1300,–
"CC(C)[C@H](NC(=O)CNC(=O)[C@H](Cc1ccc(O)cc1)NC(=O)CNC(=O)[C@H](CC(=O)O)NC(=O)[C@H](Cc1ccc(O)cc1)NC(=O)[C@@H]1CCC(=O)N1)C(=O)NCC(=O)O [SEQ ID NO:20, J Y D G Y G V G] ([pGlu]YDGYGVG-OH)",104,–
"CC(C)[C@H](NC(=O)CNC(=O)[C@H](CS(=O)(=O)O)NC(=O)CNC(=O)[C@H](CC(=O)O)NC(=O)[C@H](Cc1ccc(O)cc1)NC(=O)[C@@H]1CCC(=O)N1)C(=O)NCC(=O)O [SEQ ID NO:26, j Y D G X^2 G V G] ([pGlu]YDG[Cya]GVG-OH)",1000,–
"CC(C)[C@H](NC(=O)CNC(=O)[C@H](CCC(=O)O)NC(=O)[C@H](C)NC(=O)[C@H](CC(=O)O)NC(=O)[C@H](Cc1ccc(O)cc1)NC(=O)[C@@H]1CCC(=O)N1)C(=O)NCC(=O)O [SEQ ID NO:27, J Y D A E G V G] ([pGlu]YDAEGVG-OH)",< 50,binding to mAb 1H11 (in words): substantially eliminates mAb 1H11 binding affinity
"CC(C)[C@H](NC(=O)[C@H](C)NC(=O)[C@H](CCC(=O)O)NC(=O)CNC(=O)[C@H](CC(=O)O)NC(=O)[C@H](Cc1ccc(O)cc1)NC(=O)[C@@H]1CCC(=O)N1)C(=O)NCC(=O)O [SEQ ID NO:28, J Y D G E A V G] ([pGlu]YDGEAVG-OH)",< 50,binding to mAb 1H11 (in words): loss of mAb 1H11 binding affinity
"CC(C)[C@H](NC(=O)CNC(=O)[C@H](CCC(=O)O)NC(=O)CNC(=O)[C@H](CCC(=O)O)NC(=O)[C@H](Cc1ccc(O)cc1)NC(=O)[C@@H]1CCC(=O)N1)C(=O)NCC(=O)O [SEQ ID NO:30, J Y E G E G V G] ([pGlu]YEGEGVG-OH)",3000,–
"CC(C)[C@H](NC(=O)CNC(=O)[C@H](CC(=O)O)NC(=O)CNC(=O)[C@H](CC(=O)O)NC(=O)[C@H](Cc1ccc(O)cc1)NC(=O)[C@@H]1CCC(=O)N1)C(=O)NCC(=O)O [SEQ ID NO:31, J Y D G D G V G] ([pGlu]YDGDGVG-OH)",–,"Results: peptide binding to mAb 1H11, 1 μg synthetic peptide = X nmole BCE (listed as 31): 1400 nmole BCE"
"CC(C)[C@H](NC(=O)CNC(=O)[C@H](CC(=O)O)NC(=O)CNC(=O)[C@H](CCC(=O)O)NC(=O)[C@H](Cc1ccc(O)cc1)NC(=O)[C@@H]1CCC(=O)N1)C(=O)NCC(=O)O [SEQ ID NO:32, J Y E G D G V G] ([pGlu]YEGDGVG-OH)",1000,–
"CC(C)[C@H](NC(=O)CNC(=O)[C@H](CCCC(=O)O)NC(=O)CNC(=O)[C@H](CC(=O)O)NC(=O)[C@H](Cc1ccc(O)cc1)NC(=O)[C@@H]1CCC(=O)N1)C(=O)NCC(=O)O [SEQ ID NO:34, J Y D G X^4 G V G] ([pGlu]YDG[Aad]GVG-OH)",750,–
